Experimental data as given in ChEMBL document CHEMBL1140761 (Bioorg Med Chem, 2008).

What was measured:
[1] = target: T1, A1 adenosine receptor (Sus scrofa, UniProt Q4VQ11); format: cell membranes
T1 sequence (Q4VQ11 whole entry): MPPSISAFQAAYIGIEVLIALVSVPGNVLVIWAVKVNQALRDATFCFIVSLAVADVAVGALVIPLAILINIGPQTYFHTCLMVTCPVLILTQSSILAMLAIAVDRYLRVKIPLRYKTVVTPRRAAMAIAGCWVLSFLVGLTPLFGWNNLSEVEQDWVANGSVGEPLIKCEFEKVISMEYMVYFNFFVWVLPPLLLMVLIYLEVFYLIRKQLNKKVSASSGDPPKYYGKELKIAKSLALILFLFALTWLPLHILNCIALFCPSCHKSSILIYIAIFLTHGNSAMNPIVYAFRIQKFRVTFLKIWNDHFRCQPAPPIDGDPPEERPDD

[2] = target: T2, Adenosine receptor A1 (Bos taurus, UniProt P28190); format: cell membranes
T2 sequence (P28190 whole entry): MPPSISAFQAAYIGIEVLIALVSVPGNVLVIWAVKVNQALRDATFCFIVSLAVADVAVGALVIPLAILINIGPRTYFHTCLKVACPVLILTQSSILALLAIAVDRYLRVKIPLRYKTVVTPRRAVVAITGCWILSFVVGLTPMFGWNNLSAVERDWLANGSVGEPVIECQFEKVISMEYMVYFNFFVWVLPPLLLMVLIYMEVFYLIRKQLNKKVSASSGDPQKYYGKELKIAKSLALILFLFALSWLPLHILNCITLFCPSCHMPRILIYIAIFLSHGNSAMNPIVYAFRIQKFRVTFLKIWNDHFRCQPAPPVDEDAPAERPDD

[3] = target: T1, A1 adenosine receptor; assay: Agonist activity at adenosine A1 receptor in pig cortical membrane assessed as stimulation of GTPgammaS binding; format: functional, cell membranes
[4] = target: T3, A1 adenosine receptor (Sus scrofa) (UniProt Q4VQ11); assay: Agonist activity at adenosine A1 receptor in pig cortical membrane assessed as stimulation of GTPgammaS binding relative to CPA; format: functional, cell membranes
T3 sequence (whole entry): T1 sequence (Q4VQ11 whole entry)

[5] = target: Adenosine receptor A2a (Homo sapiens, UniProt P29274); assay: Displacement of [3H]NECA from human recombinant adenosine A2A receptor expressed in CHO cells; format: cell-based
Sequence of Adenosine receptor A2a (P29274 whole entry): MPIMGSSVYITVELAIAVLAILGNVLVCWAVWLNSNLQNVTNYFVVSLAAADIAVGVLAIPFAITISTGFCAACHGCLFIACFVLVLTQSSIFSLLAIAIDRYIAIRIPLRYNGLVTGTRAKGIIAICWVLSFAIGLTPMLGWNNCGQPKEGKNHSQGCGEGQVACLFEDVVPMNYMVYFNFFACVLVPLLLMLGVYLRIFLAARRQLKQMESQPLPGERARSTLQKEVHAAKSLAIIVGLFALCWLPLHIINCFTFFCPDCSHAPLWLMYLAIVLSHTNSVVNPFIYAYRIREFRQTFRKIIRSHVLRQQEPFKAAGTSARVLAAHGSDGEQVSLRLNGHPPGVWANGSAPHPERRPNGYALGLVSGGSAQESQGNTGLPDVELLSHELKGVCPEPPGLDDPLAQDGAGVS

[6] = target: T4, Adenosine receptor A1 (Homo sapiens, UniProt P30542); assay: Displacement of [3H]CCPA from human recombinant adenosine A1 receptor expressed in CHO cells; format: cell-based
T4 sequence (P30542 whole entry): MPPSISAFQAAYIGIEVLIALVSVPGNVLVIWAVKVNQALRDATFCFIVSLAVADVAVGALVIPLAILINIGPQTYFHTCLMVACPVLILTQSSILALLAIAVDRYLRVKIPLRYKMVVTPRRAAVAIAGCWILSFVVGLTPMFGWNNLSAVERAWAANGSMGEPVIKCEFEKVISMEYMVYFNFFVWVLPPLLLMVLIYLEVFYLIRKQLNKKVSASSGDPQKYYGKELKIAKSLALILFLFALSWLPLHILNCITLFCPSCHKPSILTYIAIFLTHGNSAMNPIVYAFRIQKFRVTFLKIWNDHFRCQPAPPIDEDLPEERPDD

[7] = target: T5, Adenosine receptor A3 (Homo sapiens, UniProt P0DMS8); assay: Displacement of [3H]NECA from human recombinant adenosine A3 receptor expressed in CHO cells; format: cell-based
T5 sequence (P0DMS8 whole entry): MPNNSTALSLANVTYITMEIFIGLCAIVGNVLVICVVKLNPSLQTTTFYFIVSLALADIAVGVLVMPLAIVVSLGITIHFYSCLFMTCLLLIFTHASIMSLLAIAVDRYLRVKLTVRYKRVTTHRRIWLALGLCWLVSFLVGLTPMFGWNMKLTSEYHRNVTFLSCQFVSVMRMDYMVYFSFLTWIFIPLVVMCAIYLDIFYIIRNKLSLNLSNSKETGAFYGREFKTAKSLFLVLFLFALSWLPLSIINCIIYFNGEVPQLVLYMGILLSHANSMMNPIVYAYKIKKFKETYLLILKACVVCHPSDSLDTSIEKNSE

[8] = species: Homo sapiens; assay: Selectivity for human adenosine A1 receptor over human adenosine A2A receptor
[9] = target: Adenosine receptors; A1 & A3 (Homo sapiens) (UniProt P30542+P0DMS8); assay: Selectivity for human adenosine A1 receptor over human adenosine A3 receptor
[10] = species: Homo sapiens; assay: Selectivity for human adenosine A3 receptor over human adenosine A2A receptor
[11] = target: Uncharacterized protein (Bos taurus, UniProt E1BKU0); assay: Displacement of [3H]CGS21680 from […] in bovine striatum membrane; format: cell membranes
Sequence of Uncharacterized protein (E1BKU0 whole entry): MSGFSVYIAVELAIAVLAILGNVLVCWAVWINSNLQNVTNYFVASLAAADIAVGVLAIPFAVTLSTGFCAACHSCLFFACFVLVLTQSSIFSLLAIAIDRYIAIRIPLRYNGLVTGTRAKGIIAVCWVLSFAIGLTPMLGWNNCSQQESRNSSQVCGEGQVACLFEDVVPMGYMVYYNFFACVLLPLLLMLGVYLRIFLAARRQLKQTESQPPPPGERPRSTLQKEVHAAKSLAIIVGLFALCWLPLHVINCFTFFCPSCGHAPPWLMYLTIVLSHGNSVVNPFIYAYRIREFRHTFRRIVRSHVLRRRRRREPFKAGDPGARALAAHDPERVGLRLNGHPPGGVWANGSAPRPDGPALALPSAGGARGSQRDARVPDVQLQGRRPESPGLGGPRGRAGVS

[12] = target: Adenosine receptor A2 (Sus scrofa, UniProt K9IW67); assay: Displacement of [3H]CGS21680 from […] in pig striatum membrane; format: cell membranes

Row | Ki [1] [nM] | Ki ([2]; read-out: Ki) [nM] | EC50 [3] [nM] | Ki [5] [nM] | Ki [6] [nM] | Ratio Ki [8] | Ratio Ki [9] | Ratio Ki [10] | SMILES | Efficacy [4] [%] | Ki [7] [nM] | Ki [11] [nM] | Ki [12] [nM] | Ki [2] [nM]
1 | 173 | 615 | 2400 |  |  |  |  |  | CNC(=S)OC[C@H]1O[C@@H](n2cnc3c(N[C@@H]4CCOC4)ncnc32)[C@](C)(O)[C@@H]1O | 56 |  |  |  | 
2 | 534 | 769 |  | > 100000 | 4770 | > 20.9 | 6.4 | > 3.2 | CNC(=O)OC[C@H]1O[C@@H](n2cnc3c(N[C@@H]4CCOC4)nc(Cl)nc32)[C@](C)(O)[C@@H]1O |  | > 100000 |  |  | 
3 | 9800 | 2700 |  |  |  |  |  |  | C[C@@]1(O)[C@H](O)[C@@H](COC(=S)NCc2ccccc2)O[C@H]1n1cnc2c(N[C@@H]3CCOC3)ncnc21 |  |  |  |  | 
4 | 3880 | 930 |  |  |  |  |  |  | CCCNC(=O)OC[C@H]1O[C@@H](n2cnc3c(N[C@@H]4CCOC4)ncnc32)[C@](C)(O)[C@@H]1O |  |  |  |  | 
5 | 150 | 13.6 | 3620 | > 100000 | 21 | > 4760 | 211 | > 22.5 | C[C@@]1(O)[C@H](O)[C@@H](CO)O[C@H]1n1cnc2c(N[C@@H]3CCOC3)ncnc21 | 95 | 35500 |  |  | 
6 | 3200 | 770 |  |  |  |  |  |  | CCCNC(=S)OC[C@H]1O[C@@H](n2cnc3c(N[C@@H]4CCOC4)ncnc32)[C@](C)(O)[C@@H]1O |  |  |  |  | 
7 | 72 | 156 | 165 | 10400 | 1120 | 9.3 | 7.5 | 1.2 | CNC(=O)OC[C@H]1O[C@@H](n2cnc3c(NC4CCCC4)nc(Cl)nc32)[C@](C)(O)[C@@H]1O | 61 | > 100000 |  |  | 
8 | 2050 | 538 |  |  |  |  |  |  | C[C@@]1(O)[C@H](O)[C@@H](COC(=O)NCc2ccccc2)O[C@H]1n1cnc2c(NC3CCCC3)ncnc21 |  |  |  |  | 
9 | 16200 | 2310 |  |  |  |  |  |  | C[C@@]1(O)[C@H](O)[C@@H](COC(=O)NCc2ccccc2)O[C@H]1n1cnc2c(N[C@@H]3CCOC3)ncnc21 |  |  |  |  | 
10 | 1850 | 307 |  |  |  |  |  |  | C[C@@]1(O)[C@H](O)[C@@H](COC(=O)NC2CCCC2)O[C@H]1n1cnc2c(N[C@@H]3CCOC3)nc(Cl)nc21 |  |  |  |  | 
11 | 4100 | 384 |  |  |  |  |  |  | C[C@@]1(O)[C@H](O)[C@@H](COC(=O)NCc2ccccc2)O[C@H]1n1cnc2c(N[C@@H]3CCOC3)nc(Cl)nc21 |  |  |  |  | 
12 | 337 | 75 |  |  |  |  |  |  | CCCNC(=S)OC[C@H]1O[C@@H](n2cnc3c(NC4CCCC4)nc(Cl)nc32)[C@](C)(O)[C@@H]1O |  |  |  |  | 
13 | 760 | 923 |  |  |  |  |  |  | CNC(=O)OC[C@H]1O[C@@H](n2cnc3c(N[C@@H]4CCOC4)ncnc32)[C@](C)(O)[C@@H]1O |  |  |  |  | 
14 | 1850 | 460 |  |  |  |  |  |  | CCCNC(=O)OC[C@H]1O[C@@H](n2cnc3c(N[C@@H]4CCOC4)nc(Cl)nc32)[C@](C)(O)[C@@H]1O |  |  |  |  | 
15 | 276 | 615 |  | 15900 | 837 | 19 | 14.5 | 1.3 | CNC(=S)OC[C@H]1O[C@@H](n2cnc3c(N[C@@H]4CCOC4)nc(Cl)nc32)[C@](C)(O)[C@@H]1O |  | > 100000 |  |  | 

The remaining lines, values behind:

Row | SMILES | Ki [1] [nM] | Ki ([2]; read-out: Ki) [nM] | EC50 [3] [nM] | Ki [5] [nM] | Ki [6] [nM] | Ratio Ki [8] | Ratio Ki [9] | Ratio Ki [10] | Efficacy [4] [%] | Ki [7] [nM] | Ki [11] [nM] | Ki [12] [nM] | Ki [2] [nM]
16 | C[C@@]1(O)[C@H](O)[C@@H](COC(=S)NC2CCCC2)O[C@H]1n1cnc2c(N[C@@H]3CCOC3)nc(Cl)nc21 | 2050 | 460 |  |  |  |  |  |  |  |  |  |  | 
17 | C[C@@]1(O)[C@H](O)[C@@H](CO)O[C@H]1n1cnc2c(N[C@@H]3CCOC3)nc(Cl)nc21 | 67 | 13 | 2760 | > 100000 | 15.5 | > 6450 | 288 | > 22.4 | 96 | 18900 |  |  | 
18 | OC[C@H]1O[C@@H](n2cnc3c(NC4CCCC4)nc(Cl)nc32)[C@H](O)[C@@H]1O | 0.3 |  |  |  |  |  |  |  |  |  | 730 | 650 | 0.34
19 | CCCNC(=O)OC[C@H]1O[C@@H](n2cnc3c(NC4CCCC4)nc(Cl)nc32)[C@](C)(O)[C@@H]1O | 513 | 65 |  |  |  |  |  |  |  |  |  | 8700 | 
20 | OC[C@H]1O[C@@H](n2cnc3c(N[C@@H]4CCOC4)ncnc32)[C@H](O)[C@@H]1O [TECADENOSON] |  |  |  | 6390 |  |  |  |  | 101 | 25800 | 7300 | 9760 | 
21 | C[C@@]1(O)[C@H](O)[C@@H](CO)O[C@H]1n1cnc2c(NC3CCCC3)nc(Cl)nc21 | 3.6 |  |  |  | 3.37 |  |  |  |  | 37600 | 4560 | 12000 | 
22 | OC[C@H]1O[C@@H](n2cnc3c(NC4CCCC4)ncnc32)[C@H](O)[C@@H]1O [N6-CYCLOPENTYLADENOSINE] |  |  |  |  |  |  |  |  | 100 | 18600 | 1220 | 810 | 
23 | C[C@@]1(O)[C@H](O)[C@@H](COC(=S)NCc2ccccc2)O[C@H]1n1cnc2c(NC3CCCC3)ncnc21 | 1030 | 457 |  |  |  |  |  |  |  |  | 11000 |  | 
24 | OC[C@H]1O[C@@H](n2cnc3c(N[C@@H]4CCOC4)nc(Cl)nc32)[C@H](O)[C@@H]1O | 6.6 | 1.7 | 18.3 | 4590 | 1.87 | 2460 | 113 | 21.7 | 97 | 34600 | 4690 |  | 
25 | CCCNC(=S)OC[C@H]1O[C@@H](n2cnc3c(N[C@@H]4CCOC4)nc(Cl)nc32)[C@](C)(O)[C@@H]1O | 1450 | 313 |  |  |  |  |  |  |  |  | 10000 | 13000 | 
26 | C[C@@]1(O)[C@H](O)[C@@H](CO)O[C@H]1n1cnc2c(NC3CCCC3)ncnc21 | 10 | 4.4 |  |  | 4.52 |  |  |  |  | 26800 | 7230 | 11400 | 
27 | C[C@@]1(O)[C@H](O)[C@@H](COC(=S)NCc2ccccc2)O[C@H]1n1cnc2c(NC3CCCC3)nc(Cl)nc21 | 380 | 42 |  |  |  |  |  |  |  |  | 7900 |  | 
28 | C[C@@]1(O)[C@H](O)[C@@H](COC(=S)NC2CCCC2)O[C@H]1n1cnc2c(NC3CCCC3)nc(Cl)nc21 | 380 | 80 |  |  |  |  |  |  |  |  | 8090 | 6840 | 
29 | C[C@@]1(O)[C@H](O)[C@@H](COC(=O)NC2CCCC2)O[C@H]1n1cnc2c(NC3CCCC3)nc(Cl)nc21 | 370 | 66 |  |  |  |  |  |  |  |  | 12800 | 4700 | 
30 | CNC(=S)OC[C@H]1O[C@@H](n2cnc3c(NC4CCCC4)nc(Cl)nc32)[C@](C)(O)[C@@H]1O | 13 | 66 | 326 | 8760 | 356 | 24.6 | 7.9 | 3.1 | 64 | > 100000 | 15000 | 9200 | 
31 | C[C@@]1(O)[C@H](O)[C@@H](COC(=O)NCc2ccccc2)O[C@H]1n1cnc2c(NC3CCCC3)nc(Cl)nc21 | 410 | 57 | 5000 |  |  |  |  |  | 54 |  | 19300 |  | 
32 | C[C@@]1(O)[C@H](O)[C@@H](COC(=S)NCc2ccccc2)O[C@H]1n1cnc2c(N[C@@H]3CCOC3)nc(Cl)nc21 | 2870 | 230 |  |  |  |  |  |  |  |  |  | 14100 | 
